Assay results from US8445636B2, “Antimicrobial and anticancer lipopeptides” (Yeda Research & Development Co. Ltd., priority 2003, dated 2013).
Converted amounts (≈) assume the structure as drawn. Where two headings read alike, the source gives them in different places. Non-standard residues stand in square brackets, D forms with d. Residues, ends and D or L forms follow the SMILES beside them. *: point of attachment. Palmitoyl = CCCCCCCCCCCCCCCC(=O)*; Lauroyl = CCCCCCCCCCCC(=O)*

Assays:
Type in all cases: cell-based
[1] = test system: Aspergillus fumigatus ATCC 26430; assay: microbe, parasite or virus in culture
[2] = test system: Staphylococcus aureus ATCC 6538P
Method in brief: (§1)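 LB, pH 7.4 default (5.5 optional, adjusted with HCl/NaOH); inoculum suspension 1×10^6 CFU/ml, added 1:1 to 2-fold lipopeptide dilutions in water; 37° C, 18-20 h; OD600; MIC = 100% inhibition.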

M. laleus = details: Table 3, short lipopeptides; pH 7.4
Method in brief: as §1

[3] = test system: Pseudomonas aeruginosa ATCC 27853
Method in brief: as §1

E. coli D21 = test system: E. coli D21
[4] = test system: Cryptococcus neoformans ATCC MYA-422; assay: microbe, parasite or virus in culture; details: ATCC MYA-422, pH 7.4; for MIC: read-out: Minimal Inhibitory Concentration, Cyrptococcus neoformans (ATCC MYA-422)
[5] = test system: Candida albicans ATCC 10231; assay: microbe, parasite or virus in culture
Method in brief: (§2)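 Broth microdilution in RPMI 1640/0.165 M MOPS, 1×10^4 CFU/ml inoculum, 2-fold serial lipopeptide dilutions in water, pH 7.4 unless stated (pH 5.5 alternative). Incubated 24–48 h at 35 °C with agitation; growth read at A620. MIC = lowest concentration giving 100% growth inhibition.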

[6] = test system: Escherichia coli ATCC 25922
Method in brief: as §1

[7] = test system: Acinetobacter baumannii ATCC 19606
Method in brief: as §1

E. coli ATCC 35218 = details: ATCC 35218, pH 7.4
Method in brief: as §1

E. aerogenes ATCC 35029 = details: ATCC 35029, pH 7.4
Method in brief: as §1

[8] = Cytotoxicity, XTT viability, non-cancer cells; details: mouse, non-cancer cell line, 24 h incubation, read-out: LC50, 3T3
Protocol: Prostate cancer cell lines (CL1 and 22RV1; ATCC, USA) were grown in RPMI-1640 supplemented with 10% FCS (Biological Industries, Beit Haemek, Israel). N1H-3T3 mouse fibroblast cell line (ATCC, USA) was grown in DMEM supplemented with 10% bovine serum. To test cytotoxicity against the cancer cells, aliquots of medium containing 1×10^4 cells were distributed into a 96-well plate (Falcon). After one day, the media were replaced with 90 μl of fresh media and 10 μl of a solution containing different concentrations of the peptides. The plate was then incubated for 24 h before adding to each well 50 μl of XTT reaction solution (Biological Industries, Beit Haemek, Israel); viability was determined as previously described (Papo et al., (2003) J. Biol. Chem. 278:21018-23). The LC50 (concentration at which 50% of the cells die) for each peptide was obtained from the dose-dependent cell viability curves.

[9] = test system: Cryptococcus neoformans ATCC 66031; assay: microbe, parasite or virus in culture
Method in brief: as §2

[10] = ATCC 26430, pH 7.4, read-out: Minimal Inhibitory Concentration, Aspergillus Fomigatus (ATCC 26430)
[11] = ATCC 10231, pH 7.4, read-out: Minimal Inhibitory Concentration, Candida Albicans (ATCC 10231)
[12] = Table 3, short lipopeptides, pH 7.4

## CCCCCCCCCCCCCCCC(=O)N[C@@H](CCCCN)C(=O)N[C@@H](CC(C)C)C(=O)N[C@H](CC(C)C)C(=O)N[C@@H](CCCCN)C(N)=O [PA-KLLK, Palmitoyl-Lys-Leu-D-Leu-Lys-NH2] (Palmitoyl-KL[dL]K-NH2)
[1]; [10]
  MIC: 3.125 µM (≈ 2.31 µg/mL)
[2]; ATCC 6538, pH 7.4
  Minimal Inhibitory Concentration, S. aureus ATCC 6538P: 3.12 µM
M. laleus
  Minimal Inhibitory Concentration, M. laleus: 3.12 µM
[3]; ATCC 27853, pH 7.4
  Minimal Inhibitory Concentration, P. aeruginosa ATCC 27853: 100 µM
E. coli D21; D21, pH 7.4
  Minimal Inhibitory Concentration, E. coli-D21: 100 µM
[4]
  MIC: 1.56 µM (≈ 1.15 µg/mL)
[5]; [11]
  MIC: 6.25 µM (≈ 4.61 µg/mL)

## Gentamycin [reference compound]
[2]; [12]
  Minimal Inhibitory Concentration, S. aureus ATCC 6538P: 6.25 µM
[2]; Table 6, pH 7.4
  Minimal inhibitory concentrations, S. aureus II ATCC 6538P: 12.5 µM
[2]; Table 7, pH 5.5
  Minimal inhibitory concentrations, S. aureus II ATCC 6538P: 25 µM
[6]; Table 6, pH 7.4
  Minimal inhibitory concentrations, E. Coli ATCC 25922: 6.25 µM
[6]; Table 7, pH 5.5
  Minimal inhibitory concentrations, E. Coli ATCC 25922: 12.5 µM
M. laleus
  Minimal Inhibitory Concentration, M. laleus: 0.78 µM
[7]; [12]
  Minimal Inhibitory Concentration, A. baumannii ATCC 19606: 3.12 µM
[7]; Table 6, pH 7.4
  Minimal inhibitory concentrations, A. baumannii ATCC 19606: 12.5 µM
[7]; Table 7, pH 5.5
  Minimal inhibitory concentrations, A. baumannii ATCC 19606: 12.5 µM
[3]; [12]
  Minimal Inhibitory Concentration, P. aeruginosa ATCC 27853: 0.78 µM
[3]; Table 6, pH 7.4
  Minimal inhibitory concentrations, P. Aeruginosa ATCC 27853: 12.5 µM
[3]; Table 7, pH 5.5
  Minimal inhibitory concentrations, P. Aeruginosa ATCC 27853: 12.5 µM
E. coli D21; [12]
  Minimal Inhibitory Concentration, E. coli-D21: 1.56 µM
E. coli D21; Table 6, pH 7.4
  Minimal inhibitory concentrations, E. Coli D21: 12.5 µM
E. coli D21; Table 7, pH 5.5
  Minimal inhibitory concentrations, E. Coli D21: 12.5 µM

## CCCCCCCCCCCC(=O)N[C@H](CC(C)C)C(=O)N[C@@H](CCCCN)C(=O)N[C@@H](CCCCN)C(=O)N[C@H](CC(C)C)C(=O)N[C@H](CC(C)C)C(=O)N[C@@H](CCCCN)C(=O)N[C@@H](CCCCN)C(=O)N[C@H](CC(C)C)C(=O)N[C@H](CC(C)C)C(=O)N[C@@H](CCCCN)C(=O)N[C@@H](CCCCN)C(=O)N[C@H](CC(C)C)C(N)=O [lipopeptide 22, (CH3-(CH2)10-CO-)-D-Leu-Lys-Lys-D-Leu-D-Leu-Lys-Lys-D-Leu-D-Leu-Lys-Lys-D-Leu-NH2] (Lauroyl-[dL]KK[dL][dL]KK[dL][dL]KK[dL]-NH2)
[1]; ATCC 26430, pH 5.5, read-out: Minimal inhibitory concentrations, A. Fumig. With serum
  MIC: 100 µM (≈ 165 µg/mL)
[1]; ATCC 26430, pH 5.5, read-out: Minimal inhibitory concentrations, A. Fumig. Without serum
  MIC: 75 µM (≈ 124 µg/mL)
[1]; ATCC 26430, pH 7.4
  Minimal Inhibitory Concentration, A. fumigatus ATCC 26430: 6.25 µM
[1]; ATCC 26430, pH 7.4, read-out: Minimal inhibitory concentrations, A. Fumig. With serum
  MIC: 50 µM (≈ 82.4 µg/mL)
[1]; ATCC 26430, pH 7.4, read-out: Minimal inhibitory concentrations, A. Fumig. Without serum
  MIC: 12.5 µM (≈ 20.6 µg/mL)
E. coli ATCC 35218
  Minimal Inhibitory Concentration, E. coli ATCC 35218: 25 µM
[2]; ATCC 6538, pH 5.5
  Minimal inhibitory concentrations, S. aureus II ATCC 6538P: >100 µM
[2]; ATCC 6538, pH 7.4
  Minimal Inhibitory Concentration, S. aureus ATCC 6538P: 12.5 µM
  Minimal inhibitory concentrations, S. aureus II ATCC 6538P: 3.125 µM (≈ 5.15 µg/mL)
[6]; ATCC 25922, pH 5.5
  Minimal inhibitory concentrations, E. Coli ATCC 25922: 50 µM (≈ 82.4 µg/mL)
[6]; ATCC 25922, pH 7.4
  Minimal inhibitory concentrations, E. Coli ATCC 25922: 75 µM (≈ 124 µg/mL)
[7]; ATCC 19606, pH 5.5
  Minimal inhibitory concentrations, A. baumannii ATCC 19606: 25 µM (≈ 41.2 µg/mL)
[7]; ATCC 19606, pH 7.4
  Minimal inhibitory concentrations, A. baumannii ATCC 19606: 25 µM (≈ 41.2 µg/mL)
[3]; ATCC 27853, pH 5.5
  Minimal inhibitory concentrations, P. Aeruginosa ATCC 27853: 12.5 µM (≈ 20.6 µg/mL)
[3]; ATCC 27853, pH 7.4
  Minimal Inhibitory Concentration, P. aeruginosa ATCC 27853: 25 µM
  Minimal inhibitory concentrations, P. Aeruginosa ATCC 27853: 25 µM (≈ 41.2 µg/mL)
E. aerogenes ATCC 35029
  Minimal Inhibitory Concentration, E. aerogenes ATCC 35029: 50 µM
E. coli D21; D21, pH 5.5
  Minimal inhibitory concentrations, E. Coli D21: 25 µM (≈ 41.2 µg/mL)
E. coli D21; D21, pH 7.4
  Minimal inhibitory concentrations, E. Coli D21: 25 µM (≈ 41.2 µg/mL)
[4]
  Minimal Inhibitory Concentration, C. neoformans ATCC MYA-422: 0.78 µM
[8]
  CC50 at 24 h: 50 µM
[9]; ATCC 66031, pH 5.5, read-out: Minimal inhibitory concentrations, C. Neofor. With serum
  MIC: 1.56 µM (≈ 2.57 µg/mL)
[9]; ATCC 66031, pH 5.5, read-out: Minimal inhibitory concentrations, C. Neofor. Without serum
  MIC: <0.78 µM
[9]; ATCC 66031, pH 7.4, read-out: Minimal inhibitory concentrations, C. Neofor. With serum
  MIC: <0.78 µM
[9]; ATCC 66031, pH 7.4, read-out: Minimal inhibitory concentrations, C. Neofor. Without serum
  MIC: <0.78 µM
[5]; ATCC 10231, pH 5.5, read-out: Minimal inhibitory concentrations, C. Albicans With serum
  MIC: >100 µM
[5]; ATCC 10231, pH 5.5, read-out: Minimal inhibitory concentrations, C. Albicans Without serum
  MIC: 100 µM (≈ 165 µg/mL)
[5]; ATCC 10231, pH 7.4
  Minimal Inhibitory Concentration, C. albicans ATCC 10231: 12.5 µM
[5]; ATCC 10231, pH 7.4, read-out: Minimal inhibitory concentrations, C. Albicans With serum
  MIC: 100 µM (≈ 165 µg/mL)
[5]; ATCC 10231, pH 7.4, read-out: Minimal inhibitory concentrations, C. Albicans Without serum
  MIC: 3.125 µM (≈ 5.15 µg/mL)

## CCCCCCCCCCCCCCCC(=O)N[C@@H](CCCCN)C(=O)NCC(=O)NCC(=O)N[C@H](CCCCN)C(N)=O [PA-KGGK, Palmitoyl-Lys-Gly-Gly-D-Lys-NH2] (Palmitoyl-KGG[dK]-NH2)
[1]; [10]
  MIC: 6.25 µM (≈ 3.91 µg/mL)
[2]; ATCC 6538, pH 7.4
  Minimal Inhibitory Concentration, S. aureus ATCC 6538P: 50 µM
M. laleus
  Minimal Inhibitory Concentration, M. laleus: 3.12 µM
[3]; ATCC 27853, pH 7.4
  Minimal Inhibitory Concentration, P. aeruginosa ATCC 27853: 12.5 µM
E. coli D21; D21, pH 7.4
  Minimal Inhibitory Concentration, E. coli-D21: 25 µM
[4]
  MIC: 1.56 µM (≈ 0.976 µg/mL)
[5]; [11]
  MIC: 12.5 µM (≈ 7.82 µg/mL)
